{"source": "ChEMBL document CHEMBL1949519", "type_in_all_cases": "cell-based", "settings_in_all_cases": "COS-1", "key": {"[1]": {"target": "T1, Long-wave-sensitive opsin 1 (Homo sapiens) (UniProt P04000)", "T1 sequence (whole entry)": "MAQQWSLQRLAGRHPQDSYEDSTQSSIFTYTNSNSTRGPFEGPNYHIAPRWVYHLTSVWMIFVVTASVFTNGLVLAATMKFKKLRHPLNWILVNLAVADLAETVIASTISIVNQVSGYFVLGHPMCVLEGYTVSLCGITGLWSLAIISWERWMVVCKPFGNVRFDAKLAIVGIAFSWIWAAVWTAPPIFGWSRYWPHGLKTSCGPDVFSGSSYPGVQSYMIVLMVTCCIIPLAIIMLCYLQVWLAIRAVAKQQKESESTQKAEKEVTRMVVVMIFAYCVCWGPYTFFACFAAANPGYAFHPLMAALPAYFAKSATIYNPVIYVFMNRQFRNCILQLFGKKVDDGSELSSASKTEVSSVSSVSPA", "assay": "Inverse agonist activity at human red cone opsin expressed in COS1 cells assessed as transducer activity at 2 mM by radioactive filter binding assay"}, "[2]": {"target": "T1, Long-wave-sensitive opsin 1 (Homo sapiens)", "assay": "Inverse agonist activity at human red cone opsin expressed in COS1 cells assessed as transducer activity at 20 uM by radioactive filter binding assay"}, "[3]": {"target": "T1, Long-wave-sensitive opsin 1 (Homo sapiens)", "assay": "Inverse agonist activity at human red cone opsin expressed in COS1 cells assessed as transducer activity at 200 uM by radioactive filter binding assay"}, "[4]": {"target": "T1, Long-wave-sensitive opsin 1 (Homo sapiens)", "assay": "Agonist activity at human red cone opsin expressed in COS1 cells assessed as activation of transducer at 20 uM by radioactive filter binding assay"}}, "note": "Active and inactive are the calls of the source. The rule behind the calls is not given here.", "data": [{"smiles": "C1CCCCC1", "values": [{"measurement": "Activity", "setting": "[1]", "value": "inactive"}]}, {"smiles": "CC1=C(/C=C/C(C)=C\\C=C\\C=O)C(C)(C)CCC1", "values": [{"measurement": "Activity", "setting": "[2]", "value": "Active"}]}, {"smiles": "CC1CCCC(C)C1", "note": "(stereo not given)", "values": [{"measurement": "Activity", "setting": "[1]", "value": "Active"}]}, {"smiles": "CC1=C(C=O)C(C)(C)CCC1", "values": [{"measurement": "Activity", "setting": "[3]", "value": "Active"}]}, {"smiles": "CC1=C(/C=C/C(C)=C/C=C/C(C)=C/C=C/C=O)C(C)(C)CCC1", "values": [{"measurement": "Activity", "setting": "[4]", "value": "inactive"}]}]}
